According to patent publication US7468375B2 (Pfizer Inc., priority 2004, dated 2008):
Like-named read-outs stand apart in the source and are kept apart here.

What was measured:
[1] = biological target: T1, Full-length wild type HIV-1 integrase (SF1) (Human immunodeficiency virus type 1 group M subtype B, UniProt P04585); assay: Integrase strand-transfer scintillation proximity assay; assay type: biochemical; conditions: strand transfer, 50 min at 37° C., 246 nM integrase, 50 nM host DNA; read-out: IC50
T1 construct: made in house; host or cells: E. coli BL21 (DE3)
Text: Integrase Strand-Transfer Scintillation Proximity Assay Oligonucleotides
Oligonucleotide #1-5′-(biotin)[…]-3′ (SEQ ID NO: 1) and oligonucleotide #2-5′-[…]-3′ (SEQ ID NO: 2), were synthesized by TriLink BioTechnologies, Inc. (San Diego, Calif.). The annealed product represents preprocessed viral ds-DNA derived from the LTR U5 sequence of the viral genome. A ds-DNA control to test for non-specific interactions was made using a 3′ di-deoxy derivative of oligonucleotide #1 annealed to oligonucleotide #2. The CA overhang at the 5′ end of the non-biotinylated strand of the ds-DNA was created artificially by using a complimentary DNA oligonucleotide shortened by 2 base pairs. This configuration eliminates the requisite 3′ processing step of the integrase enzyme prior to the strand-transfer mechanism. Host ds-DNA was prepared as an unlabeled and [^3H]-thymidine labeled product from annealed oligonucleotide #3-5-[…]-3′ (SEQ ID NO: 3), and oligonucleotide #4-5′-[…]-3′ (SEQ ID NO: 4), both synthesized by TriLink BioTechnologies, Inc. (San Diego, Calif.). The annealed product had overhanging 3′ ends of poly(dA). Host DNA was custom radiolabeled by PerkinElmer Life Sciences Inc. (Boston, Mass.) using an enzymatic method with a 12/1 ratio of [methyl-3H]dTTP/cold ds-DNA to yield 5′-blunt end ds-DNA with a specific activity of >900 Ci/mmol. The radiolabeled product was purified using a NENSORB cartridge and stored in stabilized aqueous solution (PerkinElmer). The final radiolabeled product had six [^3H]-thymidine nucleotides at both 5′ ends of the host ds-DNA. Reagents: Streptavidin-coated polyvinyltoluene (PVT) SPA beads were purchased from Amersham Biosciences (Piscataway, N.J.). Cesium chloride was purchased from Shelton Scientific, Inc. (Shelton, Conn.). White, polystyrene, flat-bottom, non-binding surface, 96-well plates were purchased from Corning. All other buffer components were purchased from Sigma (St. Louis, Mo.) unless otherwise indicated.
Enzyme Construction: Full-length wild type HIV-1 integrase (SF1) sequence (amino acids 1-288) was constructed in a pET24a vector (Novagen, Madison, Wis.). The construct was confirmed through DNA sequencing. Enzyme Purification: Full length wild-type HIV Integrase was expressed in E. coli BL21 (DE3) cells and induced with 1 mM isopropyl-1 thio-β-D-galactopyranoside (IPTG) when cells reached an optical density between 0.8-1.0 at 600 nm. Cells were lysed by microfluidation in 50 mM HEPES pH 7.0, 75 mM NaCl, 5 mM DTT, 1 mM 4-(2-Aminoethyl)benzenesulfonylfluoride HCl (AEBSF). Lysate was then centrifuged 20 minutes at 11 k rpm in GSA rotor in Sorvall RC-5B at 4° C. Supernant was discarded and pellet resuspended in 50 mM HEPES pH 7.0, 750 mM NaCl, 5 mM DTT, 1 mM AEBSF and homogenized in a 40 mL Dounce homogenizer for 20 minutes on ice. Homogenate was then centrifuged 20 minutes at 11 k rpm in SS34 rotor in Sorvall RC-5B at 4° C. Supernant was discarded and pellet resuspended in 50 mM HEPES pH 7.0, 750 mM NaCl, 25 mM CHAPS, 5 mM DTT, 1 mM AEBSF. Preparation was then centrifuged 20 minutes at 11 k rpm in SS34 rotor in Sorvall RC-5B at 4° C. Supernant was then diluted 1:1 with 50 mM HEPES pH 7.0, 25 mM CHAPS, 1 mM DTT, 1 mM AEBSF and loaded onto a Q-Sepharose column pre-equilibrated with 50 mM HEPES, pH 7.0, 375 mM NaCl, 25 mM CHAPS, 1 mM DTT, 1 mM AEBSF. The flow through peak was collected and NaCl diluted to 0.1 M with 50 mM HEPES pH 7.0, 25 mM CHAPS, 1 mM DTT, 0.5 mM AEBSF and loaded onto a SP-Sepharose column pre-equilibrated with 50 mM HEPES pH 7.0, 100 mM NaCl, 25 mM CHAPS, 1 mM DTT, 0.5 mM AEBSF. After washing the column with the equilibration buffer, a 100 to 400 mM NaCl gradient was run. The eluted integrase was concentrated and run on a S-300 gel diffusion column using 50 mM HEPES pH 7.0, 500 mM NaCl, 25 mM CHAPS, 1 mM DTT, 0.5 mM AEBSF. The peak from this column was concentrated to 0.76 mg/mL and stored at −70° C. and later used for strand transfer assays. […]

[2] = tested on: RF strain of HIV-1 in CEM-SS cells; assay: HIV-1 cell protection assay (XTT dye reduction); assay type: cell-based
Experimental: HIV-1 Cell Protection Assay
The antiviral activities of potential modulator compounds (test compounds) were determined in HIV-1 cell protection assays using the RF strain of HIV-1, CEM-SS cells, and the XTT dye reduction method (Weislow, O. S. et al., J. Natl. Cancer Inst. 81: 577-586 (1989)). Subject cells were infected with HIV-1 RF virus at an moi of 0.025 to 0.819 or mock infected with medium only and added at 2×10^4 cells per well into 96 well plates containing half-log dilutions of test compounds. Six days later, 50 μl of XTT solution (1 mg/ml XTT tetrazolium and […] phenazine methosulfate) were added to the wells and the plates were reincubated for four hours. Viability, as determined by the amount of XTT formazan produced, was quantified spectrophotometrically by absorbance at 450 nm. Data from CPE assays were expressed as the percent of formazan produced in compound-treated cells compared to formazan produced in wells of uninfected, compound-free cells. […] The therapeutic index was calculated by dividing the cytotoxicity (CC50) by the antiviral activity (EC50).

[3] = Human immunodeficiency virus 1, CEM-SS, 144 h, HIV-1 RF, CEM-SS cells, XTT dye reduction, six days, read-out: EC50

SMILES | IC50 [1] [nM] | EC50 ([2]; Human immunodeficiency virus 1, CEM-SS, 144 h) [nM] | EC50 [2, 3] [nM] | EC50 ([2]; HIV-1 RF, CEM-SS cells, XTT dye reduction, six days, read-out: EC50) [nM]
CN(O)C(=O)c1cc2c(CN3[C@H]4CC[C@@H]3C(=O)NC4)cn(Cc3ccc(F)cc3)c2cn1 [Example 34, (4-Fluorobenzyl)-N-hydroxy-N-methyl-3-{[(1R,5S)-2-oxo-3,8-diazabicyclo[3.2.1]oct-8-yl]methyl}-1H-pyrrolo[2,3-c]pyridine-5-carboxamide] | 490 | 170 |  | 
CN(O)C(=O)c1cc2cnn(Cc3ccc(F)cc3)c2cn1 [Example 36, 1-(4-Fluorobenzyl)-N-hydroxy-N-methyl-1H-pyrazolo[3,4-c]pyridine-5-carboxamide] | 811 |  | 390 | 
CONC(=O)c1cc2c(CN3CCN(C)CC3)cn(Cc3ccc(F)cc3F)c2cn1 [Example 37, 1-(2,4-Difluorobenzyl)-N-methoxy-3-[(4-methylpiperazin-1-yl)methyl]-1H-pyrrolo[2,3-c]pyridine-5-carboxamide] | 528 |  | 46 | 
CCO/C=C/c1c(C(=O)NO)ncc2c1ccn2Cc1ccc(F)cc1 [Example 38, 4-[(E)-2-Ethoxyvinyl]-1-(4-fluorobenzyl)-N-hydroxy-1H-pyrrolo[2,3-c]pyridine-5-carboxamide] | 145 |  | 12 | 
O=C(NO)c1ncc2c(ccn2Cc2ccc(F)cc2)c1O [Example 42, 1-(4-Fluorobenzyl)-N,4-dihydroxy-1H-pyrrolo[2,3-c]pyridine-5-carboxamide] | 27 |  | 1 | 
CONC(=O)c1ncc2c(ccn2Cc2ccc(F)cc2)c1O [Example 43, 1-(4-Fluorobenzyl)-4-hydroxy-N-methoxy-1H-pyrrolo[2,3-c]pyridine-5-carboxamide] | 371 |  | 420 | 
COc1c(C(=O)N(C)O)ncc2c1ccn2Cc1ccc(F)cc1 [Example 44, 1-(4-Fluorobenzyl)-N-hydroxy-4-methoxy-N-methyl-1H-pyrrolo[2,3-c]pyridine-5-carboxamide] | 2250 |  | 1200 | 
CCN1CCCC1CNCc1cn(Cc2ccc(F)cc2F)c2cnc(C(=O)NO)cc12 (stereo not shown) [Example 45, 1-(2,4-Difluorobenzyl)-3-({[(1-ethylpyrrolidin-2-yl)methyl]amino}methyl)-N hydroxy-1H-pyrrolo[2,3-c]pyridine-5-carboxamide] | 295 |  |  | 51
CCN1CCCC1CNCc1cn(Cc2ccc(F)cc2F)c2cnc(C(=O)NOC)cc12 (stereo not shown) [Example 46, 1-(2,4-Difluorobenzyl)-3-({[(1-ethylpyrrolidin-2-yl)methyl]amino}methyl)-N-methoxy-1H-pyrrolo[2,3-c]pyridine-5-carboxamide] | 912 |  | 130 | 
CN1CCCC1CCNCc1cn(Cc2ccc(F)cc2F)c2cnc(C(=O)NO)cc12 (stereo not shown) [Example 51, 1-(2,4-Difluorobenzyl)-N-hydroxy-3-({[2-(1-methylpyrrolidin-2-yl)ethyl]amino}methyl)-1H-pyrrolo[2,3-c]pyridine-5-carboxamide] | 752 |  | 230 | 
CN1CCN(CCCNCc2cn(Cc3ccc(F)cc3F)c3cnc(C(=O)NO)cc23)CC1 [Example 52, 1-(2,4-Difluorobenzyl)-N-hydroxy-3-({[3-(4-methylpiperazin-1-yl)propyl]amino}methyl)-1H-pyrrolo[2,3-c]pyridine-5-carboxamide] | 781 |  | 260 | 
CC(CO)NCc1cn(Cc2ccc(F)cc2F)c2cnc(C(=O)NO)cc12 (stereo not shown) [Example 53, 1-(2,4-Difluorobenzyl)-N-hydroxy-3-{[(2-hydroxy-1-methylethyl)amino]methyl}-1H-pyrrolo[2,3-c]pyridine-5-carboxamide] | 359 |  | 11 | 
O=C(NO)c1cc2c(CNCCN3CCOCC3)cn(Cc3ccc(F)cc3F)c2cn1 [Example 54] | 746 |  | 38 | 
O=C(NO)c1cc2c(CNCc3ccccn3)cn(Cc3ccc(F)cc3F)c2cn1 [Example 55, 1-(2,4-Difluorobenzyl)-N-hydroxy-3-{[(pyridin-2-ylmethyl)amino]methyl}-1H-pyrrolo[2,3-c]pyridine-5-carboxamide] | 216 |  | 20 | 
O=C(NO)c1cc2c(CNCCc3ccccn3)cn(Cc3ccc(F)cc3F)c2cn1 [Example 56] | 278 |  | 11 | 
O=C(NO)c1cc2c(CNCCN3CCCC3)cn(Cc3ccc(F)cc3F)c2cn1 [Example 57, 1-(2,4-Difluorobenzyl)-N-hydroxy-3-{[(2-pyrrolidin-1-ylethyl)amino]methyl}-1H-pyrrolo[2,3-c]pyridine-5-carboxamide] | 542 |  | 24 | 
O=C(NO)c1cc2c(CNCCOCCO)cn(Cc3ccc(F)cc3F)c2cn1 [Example 58, 1-(2,4-Difluorobenzyl)-N-hydroxy-3-({[2-(2-hydroxyethoxy)ethyl]amino}methyl)-1H-pyrrolo[2,3-c]pyridine-5-carboxamide] | 585 |  | 100 | 
O=C(NO)c1cc2c(CN[C@@H](CO)c3ccccc3)cn(Cc3ccc(F)cc3F)c2cn1 [Example 59, 1-(2,4-Difluorobenzyl)-N-hydroxy-3-({[(1R)-2-hydroxy-1-phenylethyl]amino}methyl)-1H-pyrrolo[2,3-c]pyridine-5-carboxamide] | 221 |  | 18 | 
O=C(NO)c1cc2c(CNCC3CCCO3)cn(Cc3ccc(F)cc3F)c2cn1 (stereo not shown) [Example 60, 1-(2,4-Difluorobenzyl)-N-hydroxy-3-{[(tetrahydrofuran-2-ylmethyl)amino]methyl}-1H-pyrrolo[2,3-c]pyridine-5-carboxamide] | 521 |  | 12 | 
CN(C)CC(C)(C)CNCc1cn(Cc2ccc(F)cc2F)c2cnc(C(=O)NO)cc12 [Example 61, 1-(2,4-Difluorobenzyl)-3-({[3-(dimethylamino)-2,2-dimethylpropyl]amino}methyl)-N-hydroxy-1H-pyrrolo[2,3-c]pyridine-5-carboxamide] | 916 |  | 35 | 
